Laboratory results taken from ChEMBL document CHEMBL1201862, “PubChem BioAssay data set” (2004).
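Where inhibition never reached the appropriate level, the endpoint shown equals the highest concentration tested. Otherwise, values were interpolated linearly from a five-concentration, 48-hour dose response in 96-well plates. At the GI50, growth is halved.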 Calls of active or inactive are those of the source. Rule as the data show it: active = GI50 up to about 1.1 µM and inactive = higher.

Columns and labels:
Experiment in all cases: NCI anticancer screen, dose series, 48 h
[1] = system: IGROV-1
[2] = system: RPMI-8226
[3] = system: OVCAR-3
[4] = system: RXF 393
[5] = system: SNB-75
[6] = system: KM12
[7] = system: COLO 205
[8] = system: HOP-92
[9] = system: OVCAR-4
[10] = system: MOLT-4
[11] = system: 786-0
[12] = system: K562
[13] = system: UACC-62
[14] = system: SNB-19
[15] = system: HOP-62
[16] = system: HT-29
[17] = system: UACC-257
[18] = system: A549
[19] = system: DU-145

Measured: GI50

CC1=NOC(=O)/C1=C/c1cccc2ccccc12
inactive: [1] > 100 µM | [2] > 100 µM | [3] > 100 µM | [4] > 100 µM | [5] > 100 µM | [6] > 100 µM | [7] > 100 µM | [8] > 100 µM | [9] > 100 µM | [10] > 100 µM | [11] > 100 µM | [12] > 100 µM | [13] > 100 µM | [14] > 100 µM | [15] > 100 µM | [16] > 100 µM | [17] > 100 µM | [18] > 100 µM

Cc1ccccc1NC(=O)C(=O)CC(=O)C1CCOC1=O (configuration not stated)
inactive: [1] > 100 µM | [2] > 100 µM | [3] > 100 µM | [4] > 100 µM | [5] > 100 µM | [6] > 100 µM | [7] > 100 µM | [8] > 100 µM | [9] > 100 µM | [11] > 100 µM | [12] > 100 µM | [13] > 100 µM | [14] > 100 µM | [15] > 100 µM | [16] > 10 µM | [17] > 100 µM | [18] > 100 µM

CCOC(=O)C(=O)CC(=O)C(Br)C(Br)c1ccc(Cl)cc1 (configuration not stated)
inactive: [1] 42.5 µM | [2] 22.3 µM | [3] 23.3 µM | [4] 30.4 µM | [5] > 100 µM | [6] 57.9 µM | [7] 23.3 µM | [8] 24.6 µM | [9] 65.9 µM | [10] 21.7 µM | [11] 17.5 µM | [12] 17.6 µM | [13] 46 µM | [14] 26.4 µM | [15] > 100 µM | [16] 18.6 µM | [17] 29.5 µM | [18] > 100 µM

O=C(CCN1CCCCC1)C(=Cc1ccccc1)C(=O)CCN1CCCCC1
inactive: [1] > 100 µM | [2] 20.8 µM | [3] 3.74 µM | [4] 6.52 µM | [5] > 100 µM | [6] > 64.7 µM | [7] 27.7 µM | [8] 42.8 µM | [9] > 100 µM | [10] 18.6 µM | [11] 7.28 µM | [12] 19.7 µM | [13] 31.4 µM | [14] > 100 µM | [15] > 100 µM | [16] 6.68 µM | [17] 6.75 µM | [18] > 100 µM

CC1=C(C(=O)CC(=O)C(=O)Nc2ccc(Cl)cc2C)Sc2ccccc2N1
inactive: [1] > 100 µM | [2] > 100 µM | [3] > 100 µM | [4] > 100 µM | [5] > 100 µM | [6] > 100 µM | [7] > 100 µM | [8] 22.8 µM | [9] > 100 µM | [10] > 59.6 µM | [11] > 100 µM | [12] > 100 µM | [13] > 100 µM | [14] > 100 µM | [15] > 100 µM | [16] > 100 µM | [17] > 100 µM | [18] > 100 µM

COc1ccc(/C=C(\NC(=O)c2ccccc2)c2nc3ccccc3[nH]2)cc1OC
inactive: [1] > 100 µM | [2] 80.5 µM | [3] > 100 µM | [4] > 100 µM | [5] > 100 µM | [6] > 100 µM | [7] > 100 µM | [8] > 100 µM | [9] > 100 µM | [10] 79.1 µM | [11] > 100 µM | [12] > 100 µM | [13] > 100 µM | [14] > 100 µM | [15] > 100 µM | [16] > 100 µM | [17] > 100 µM | [18] > 100 µM

O=C1OC2C(O)COC2(O)C1(O)Cc1c[nH]c2ccccc12 (configuration not stated)
inactive: [1] > 100 µM | [2] > 100 µM | [3] > 100 µM | [4] > 100 µM | [5] > 100 µM | [6] > 100 µM | [7] > 100 µM | [8] > 100 µM | [9] > 100 µM | [10] > 100 µM | [11] > 100 µM | [12] > 100 µM | [13] > 100 µM | [14] > 100 µM | [15] > 100 µM | [16] > 100 µM | [17] > 100 µM | [18] > 100 µM

CC1(C)O[C@@H](CCl)C[C@H](C#N)O1
inactive: [1] > 100 µM | [2] > 100 µM | [3] > 100 µM | [4] > 100 µM | [5] > 100 µM | [6] > 100 µM | [7] > 100 µM | [8] > 100 µM | [9] > 100 µM | [10] > 100 µM | [11] > 100 µM | [12] > 100 µM | [13] > 100 µM | [14] > 100 µM | [15] > 100 µM | [16] > 100 µM | [17] > 100 µM | [18] > 100 µM

Cc1cccc(C(C)C)c1NC(=O)C(=O)C(C(=O)c1ccccc1F)C1OC(=O)c2ccccc21 (configuration not stated)
inactive: [1] 24.8 µM | [2] 4.78 µM | [3] 14.4 µM | [4] 11.4 µM | [5] 9.75 µM | [6] 19.2 µM | [7] 21.1 µM | [8] 23.4 µM | [9] 21.8 µM | [10] 4.73 µM | [11] 15.7 µM | [12] 20.4 µM | [13] 10.4 µM | [14] 10.8 µM | [15] 15.8 µM | [16] 29.6 µM | [17] 13 µM | [18] 37.5 µM

COC(=O)/C(C#N)=C1\NC(=O)c2ccccc21
inactive: [1] > 100 µM | [2] > 100 µM | [3] > 100 µM | [4] > 100 µM | [5] 2.4 µM | [6] > 100 µM | [7] > 100 µM | [8] > 100 µM | [9] > 100 µM | [10] > 100 µM | [11] > 100 µM | [12] > 100 µM | [13] > 100 µM | [14] > 100 µM | [15] > 100 µM | [16] > 100 µM | [17] > 100 µM | [18] > 100 µM

COC(=O)c1nc(NN)cc(O)c1CCCCCc1c(O)nc(NN)nc1C(=O)OC
inactive: [1] > 100 µM | [2] 72.4 µM | [3] > 100 µM | [4] > 100 µM | [5] > 100 µM | [6] > 100 µM | [7] > 77.8 µM | [8] > 100 µM | [9] > 100 µM | [10] > 100 µM | [11] > 100 µM | [12] > 100 µM | [13] > 100 µM | [14] > 100 µM | [15] > 100 µM | [16] > 100 µM | [17] > 100 µM | [18] > 100 µM

O=C(O)C(/C=C/c1ccccc1)c1ccccc1 (configuration not stated)
inactive: [1] > 100 µM | [2] > 100 µM | [3] > 100 µM | [4] > 100 µM | [5] > 100 µM | [7] > 100 µM | [8] > 100 µM | [10] 6.59 µM | [11] > 100 µM | [12] 84.3 µM | [13] > 100 µM | [19] > 100 µM | [14] > 100 µM | [15] > 100 µM | [16] > 100 µM | [17] > 100 µM | [18] > 100 µM

CC(C)(C)[Si](Nc1ccccc1)(c1ccccc1)c1ccccc1
inactive: [1] 14.7 µM | [2] 16.8 µM | [3] 14.3 µM | [4] 13.6 µM | [5] 12.1 µM | [6] 13.9 µM | [7] 15.3 µM | [8] 13.9 µM | [9] 13.9 µM | [10] 10.1 µM | [11] 15 µM | [12] 8.26 µM | [13] 10.6 µM | [14] 14.1 µM | [15] 16.8 µM | [16] 14.7 µM | [17] 14.9 µM | [18] 13 µM

CC(O[Si](c1ccccc1)(c1ccccc1)C(C)(C)C)[C@H](NC(=O)OC(C)(C)C)C(=O)O (some centres not stated)
inactive: [1] 20.6 µM | [2] 35.6 µM | [4] 35 µM | [5] 43.7 µM | [6] 35.3 µM | [7] 22.7 µM | [8] 29.9 µM | [9] 26.4 µM | [10] 18.1 µM | [11] 42.4 µM | [12] 46.6 µM | [19] > 10 µM | [14] 36.1 µM | [15] 49.8 µM | [16] 32.2 µM | [17] 36.1 µM | [18] 30.4 µM

Clc1cccc(Cl)c1C1SCc2nc3ccccc3n21 (configuration not stated)
inactive: [1] 37.2 µM | [2] 9.2 µM | [3] > 100 µM | [4] > 100 µM | [5] 88.3 µM | [6] > 100 µM | [7] > 100 µM | [8] 9.48 µM | [9] 83.9 µM | [10] 19.1 µM | [11] > 100 µM | [12] 10.7 µM | [13] 50.1 µM | [14] > 100 µM | [15] > 100 µM | [16] 43.9 µM | [17] 21.1 µM | [18] > 100 µM
